US9725463B2, “Substituted heterocyclic compounds as CRAC modulators” (LUPIN LIMITED, priority 2013, dated 2017)

tested on: IL-2 secretion by Jurkat T cells; experiment: Inhibition of IL-2 secretion; format: cell-based; settings: Homo sapiens; Jurkat T cells stimulated with PHA, 20 to 24 hours, IL-2 by ELISA
Description: The CRAC channel modulatory activity of the compounds were thus evaluated by measuring the secretion of IL-2 by antigen stimulated T-cells in vitro. Alternatively, such activity can also be evaluated by assay methods known to one skilled in the art.
Inhibition of IL-2 secretion: Jurkat T cells were seeded at a density of 0.5 to 1 million cells per well in RPMI medium. Test compounds from this invention were added to the cells at different concentrations. This was followed by the addition of PHA, a T cell mitogen after 10 minutes. The cells were then incubated for 20 to 24 hours in a CO2 incubator at 37° C. After incubation with the compounds, cells were centrifuged, the supernatant was collected and processed for ELISA to quantitate the amount of IL-2 secreted. A commercial ELISA kit (R&D Systems, Inc. Minneapolis, Minn., USA) was used to estimate the IL-2 concentrations. Amount of IL-2 secreted by cells stimulated with PHA was considered as a 100% maximal signal and the decrease in amount of IL-2 secreted by cells treated with the test compounds was expressed as percent inhibition of the maximal signal. The dose response data was analyzed using 4-parametric sigmoidal dose response (variable slope) curve-fit.

Compound | IC50
Cc1cc2c(cc1-c1ccc(C(=O)Nc3c(F)cccc3F)s1)oc(=O)n2C [Example 75, N-(2,6-Difluorophenyl)-5-(3,5-dimethyl-2-oxo-2,3-dihydrobenzo[d]oxazol-6-yl)thiophene-2-carboxamide] | 25 to 50 nM
Cc1cc2oc(=O)n(C(F)F)c2cc1-c1ccc(NC(=O)c2c(F)cccc2F)cn1 [Example 76, N-(6-(3-(Difluoromethyl)-6-methyl-2-oxo-2,3-dihydrobenzo[d]oxazol-5-yl)pyridin-3-yl)-2,6-difluorobenzamide] | 25 to 50 nM
Cc1cc2oc(=O)n(C(F)F)c2cc1-c1ccc(NC(=O)c2c(F)cccc2F)nc1 [Example 77, N-(5-(3-(Difluoromethyl)-6-methyl-2-oxo-2,3-dihydrobenzo[d]oxazol-5-yl)pyridin-2-yl)-2,6 difluorobenzamide] | < 25 nM
Cc1cc2oc(=O)n(C(F)F)c2cc1-c1cnc(NC(=O)c2c(F)cccc2F)cn1 [Example 78, N-(5-(3-(Difluoromethyl)-6-methyl-2-oxo-2,3-dihydrobenzo[d]oxazol-5-yl)pyrazin-2-yl)-2,6-difluorobenzamide] | < 25 nM
CCc1cc2oc(=O)n(C)c2cc1-c1cnc(NC(=O)c2c(F)cccc2F)cn1 [Example 80, N-(5-(6-Ethyl-3-methyl-2-oxo-2,3-dihydrobenzo[d]oxazol-5-yl)pyrazin-2-yl)-2,6-difluoro benzamide] | 50 to 100 nM
CCc1cc2oc(=O)n(C)c2cc1-c1ccc(NC(=O)c2c(F)cccc2F)cn1 [Example 81, N-(6-(6-Ethyl-3-methyl-2-oxo-2,3-dihydrobenzo [d]oxazol-5-yl)pyridin-3-yl)-2,6-difluoro benzamide] | 50 to 100 nM
CCc1cc2oc(=O)n(C)c2cc1-c1ccc(NC(=O)c2c(F)cccc2F)nc1 [Example 82, N-(5-(6-Ethyl-3-methyl-2-oxo-2,3-dihydrobenzo[d]oxazol-5-yl)pyridin-2-yl)-2,6-difluoro benzamide] | < 25 nM
Cn1c(=O)oc2cc(C3CC3)c(-c3ccc(NC(=O)c4c(F)cccc4F)nc3)cc21 [Example 83, N-(5-(6-Cyclopropyl-3-methyl-2-oxo-2,3-dihydrobenzo [d]oxazol-5-yl)pyridin-2-yl)-2,6-difluorobenzamide] | 25 to 50 nM
Cn1c(=O)oc2cc(C3CC3)c(-c3cnc(NC(=O)c4c(F)cccc4F)cn3)cc21 [Example 84, N-(5-(6-Cyclopropyl-3-methyl-2-oxo-2,3-dihydrobenzo [d]oxazol-5-yl)pyrazin-2-yl)-2,6-difluorobenzamide] | 25 to 50 nM
CCc1cc2oc(=O)n(C)c2cc1-c1ccc(NC(=O)c2c(F)cccc2F)cc1 [Example 85, N-(4-(6-Ethyl-3-methyl-2-oxo-2,3-dihydrobenzo [d]oxazol-5-yl)phenyl)-2,6-difluorobenzamide] | < 25 nM
Cn1c(=O)oc2cc(-c3cnc(NC(=O)c4c(F)cccc4F)cn3)c(C3CC3)nc21 [Example 86, N-(5-(5-Cyclopropyl-3-methyl-2-oxo-2,3-dihydrooxazolo[4,5-b]pyridin-6-yl)pyrazin-2-yl)-2,6-difluorobenzamide] | 25 to 50 nM
CCc1cc2oc(=O)n(C)c2cc1-c1ccc(C(=O)Nc2c(F)cccc2F)s1 [Example 88, N-(2,6-Difluorophenyl)-5-(6-ethyl-3-methyl-2-oxo-2,3-dihydrobenzo [d]oxazol-5-yl) thiophene-2-carboxamide] | < 25 nM
Cn1c(=O)oc2cc(C3CC3)c(-c3ccc(C(=O)Nc4c(F)cccc4F)s3)cc21 [Example 89, 5-(6-Cyclopropyl-3-methyl-2-oxo-2,3-dihydrobenzo[d]oxazol-5-yl)-N-(2,6-difluorophenyl) thiophene-2-carboxamide] | < 25 nM
CCc1cc2c(cc1-c1ccc(C(=O)Nc3c(F)cncc3F)cc1)oc(=O)n2C [Example 90, N-(3,5-Difluoropyridin-4-yl)-4-(5-ethyl-3-methyl-2-oxo-2,3-dihydrobenzo [d]oxazol-6-yl) benzamide] | 25 to 50 nM
CCc1cc2oc(=O)n(C)c2cc1-c1ccc(C(=O)Nc2c(F)cncc2F)cc1 [Example 92, N-(3,5-Difluoropyridin-4-yl)-4-(6-ethyl-3-methyl-2-oxo-2,3-dihydrobenzo [d]oxazol-5-yl) benzamide] | < 25 nM
Cn1c(=O)oc2cc(C3CC3)c(-c3ccc(C(=O)Nc4c(F)cncc4F)cc3)cc21 [Example 93, 4-(6-Cyclopropyl-3-methyl-2-oxo-2,3-dihydrobenzo[d]oxazol-5-yl)-N-(3,5-difluoropyridin-4-yl)benzamide] | < 25 nM
Cn1c(=O)oc2cc(C3CC3)c(-c3ccc(NC(=O)c4c(F)cccc4F)cc3)cc21 [Example 94, N-(4-(6-Cyclopropyl-3-methyl-2-oxo-2,3-dihydrobenzo [d]oxazol-5-yl)phenyl)-2,6-difluorobenzamide] | < 25 nM
O=C(Nc1ccc(-c2ccc3c(oc(=O)n3C(F)F)c2C2CC2)cc1)c1c(F)cccc1F [Example 95, N-(4-(7-Cyclopropyl-3-(difluoromethyl)-2-oxo-2,3-dihydrobenzo[d]oxazol-6-yl)phenyl)-2,6-difluorobenzamide] | < 25 nM
Cn1c(=O)oc2c(C3CC3)c(-c3ccc(NCc4c(F)cccc4F)cc3)ccc21 [Example 100, 7-Cyclopropyl-6-(4-((2,6-difluorobenzyl)amino)phenyl)-3-methylbenzo [d]oxazol-2(3H)-one] | 25 to 50 nM
Cn1c(=O)oc2c(C3CC3)c(-c3ccc(NC(=O)c4c(F)cccc4Cl)cc3)ccc21 [Example 101, 2-Chloro-N-(4-(7-cyclopropyl-3-methyl-2-oxo-2,3-dihydrobenzo[d]oxazol-6-yl)phenyl)-6-fluorobenzamide] | < 25 nM
Cn1c(=O)oc2c(C3CC3)c(-c3ccc(NC(=O)c4ccccc4Cl)cc3)ccc21 [Example 103, 2-Chloro-N-(4-(7-cyclopropyl-3-methyl-2-oxo-2,3-dihydrobenzo[d]oxazol-6-yl)phenyl)benzamide] | 50 to 100 nM
CN1C(=O)COc2c1ccc(-c1ccc(NC(=O)c3c(F)cccc3F)cc1)c2C1CC1 [Example 107, N-(4-(8-Cyclopropyl-4-methyl-3-oxo-3,4-dihydro-2H-benzo[b][1,4]oxazin-7-yl)phenyl)-2,6-difluorobenzamide] | < 25 nM
CN1C(=O)COc2c1ccc(-c1cnc(NC(=O)c3c(F)cccc3F)cn1)c2C1CC1 [Example 109, N-(5-(8-Cyclopropyl-4-methyl-3-oxo-3,4-dihydro-2H-benzo[b][1,4]oxazin-7-yl)pyrazin-2-yl)-2,6-difluorobenzamide] | 50 to 100 nM
CN1C(=O)COc2c1ncc(-c1ccc(NC(=O)c3c(F)cccc3F)cc1)c2C1CC1 [Example 112, N-(4-(8-Cyclopropyl-4-methyl-3-oxo-3,4-dihydro-2H-pyrido[3,2-b][1,4]oxazin-7-yl)phenyl)-2,6-difluorobenzamide] | 25 to 50 nM
CN1C(=O)COc2cc(-c3ccc(NC(=O)c4c(F)cccc4F)cc3)c(C3CC3)cc21 [Example 113, N-(4-(6-Cyclopropyl-4-methyl-3-oxo-3,4-dihydro-2H-benzo[b][1,4]oxazin-7-yl)phenyl)-2,6-difluorobenzamide] | < 25 nM
CN1C(=O)COc2cc(-c3ccc(NCc4c(F)cccc4F)cc3)c(C3CC3)cc21 [Example 114, 6-Cyclopropyl-7-(4-((2,6-difluorobenzyl)amino)phenyl)-4-methyl-2H-benzo[b][1,4]oxazin-3(4H)-one] | < 25 nM
